Data as given in US10226452B2, “Benzoxazolone derivatives as acid ceramidase inhibitors, and their use as medicaments” (FONDAZIONE ISTITUTO ITALIANO DI TECNOLOGIA, priority 2014, dated 2019).

Assays:
AC = AC (Mus musculus (Mouse), UniProt Q9WV54); assay: AC activity ex vivo in mouse tissues after systemic administration; conditions: mice
Experimental: Specifically, it is evidences the effects of compound of Example 7 or vehicle (15% polyethylene glycol, 15% Tween80, 70% saline) on AC activity in mouse lungs. AC activity measured ex vivo 30 minutes or 3 hours after intraperitoneal injection of compound of Example 7 (10 mg-kg^−1). Results are expressed as mean±s.e.m. (n=6). ***p<0.001 vs vehicle, one-way ANOVA followed by Dunnet.
Specifically, FIG. 7 illustrates the effects of compound of Example 25 or vehicle (15% polyethylene glycol, 15% Tween80, 70% saline) on AC activity in mouse lungs (oral administration, A) or cerebral cortex (intraperitoneal administration, B) and on ceramide levels (C and D). Results are expressed as mean±s.e.m. (n=6). *p<0.05, **p<0.01, ***p<0.001 vs vehicle, one-way ANOVA followed by Dunnet.
hAC protein preparation (10 μg) was preincubated with inhibitors (final DMSO concentration 1%) in assay buffer (100 mM sodium phosphate, 0.1% Nonidet P-40, 150 mM NaCl, 3 mM DTT, 100 mM sodium citrate, pH 4.5) for 30 min at 37° C. Reactions were started by the addition of 50 μM N-lauroyl ceramide (Nu-Chek Prep, Elysian, Minn.) and carried on for 30 min at 37° C. Reactions were stopped by addition of a mixture of chloroform/methanol (2:1, vol/vol) containing 1 nmol 11-lauroleic acid (NuChek Prep). The organic phases were collected, dried under nitrogen and analyzed by UPLC/MS (Acquity, Waters). In the negative-ion mode monitoring the reaction product (lauric acid, m/z=199) using 11-lauroleic acid as internal standard.

A375 cells = assay: ceramide levels in A375 human melanoma cells; assay type: cell-based; conditions: 25 μM
Experimental: Specifically, FIG. 1 evidences the effects of compound of Example 7 or vehicle (0.1% DMSO in DMEM) on AC activity and ceramide levels in A375 (left panel) or MeWo (right panel) human melanoma cell lines. (A-B) Intact cells were treated with compound of Example 7 (25 μM) or vehicle and AC activity was measured 30 minutes or 3 hours later in cell lysates. (B) Intact cells were exposed to compound of Example 7 (25 μM) for 2 hours or 24 hours and medium chain ceramides (C-D), long chain ceramides (E-F) and dihydroceramides (G-H) were quantified. Results are expressed as mean±s.e.m. (n=3). *p<0.05, **p<0.01, ***p<0.001 vs vehicle, two-way ANOVA followed by Dunnet.
Lipids were extracted from mouse tissue lysate with a chloroform/MeOH mixture (2:1 v/v, 3 mL) containing internal standards. The organic phase was collected, dried under nitrogen, and dissolved in chloroform/MeOH (1:3 v/v) for LC-MS analyses. Ceramides, sphingosine and sphinganine were analyzed by LC-MS/MS, using a Waters Acquity UPLC coupled with a Waters Xevo TQMS and interfaced with ESI. Separation was done on a Waters Acquity BEH C18 1.7 μm column (2.1×50 mm) at 60° C. A step gradient of 0.1% formic acid in acetonitrile/water (20:80 v/v) as solvent A and 0.1 formic acid in acetonitrile/isopropyl alcohol (20:80 v/v) as solvent B was applied at a flow rate of 0.4 mL/min. Detection was in the positive ionization mode. Capillary voltage was 3.5 kV and cone voltage was 25 V. The source temperature and desolvation temperatures were set at 120° C. and 600° C. respectively. […]
Tissue-derived ceramides were identified by comparison of their LC retention times and MS^2 fragmentation patterns with those of authentic standards (Avanti Polar Lipids). Extracted ion chromatograms were used to quantify myristoyl ceramide (C14:0, m/z 510.5>492.5>264.3), palmitoyl ceramide (C16:0, m/z 538.5>520.3>264.3), stearoyl ceramide (C18:0 m/z 566.5>548.3>264.3), lignoceroyl ceramide (C24:0 m/z 650.5>632.3>264.3), nervonoyl ceramide (C24:1 m/z 648.5>630.3>264.3) and using lauroyl ceramide standard (m/z 482.5>464.5>264.3). […]

[1] = test system: proteases (aspartic, cysteine, and serine), cyclooxygenases, lipoxygenases and group IV phospholipase (sPLA2); assay: off-target test on a set of enzymes (overall statement); assay type: biochemical; conditions: 10 μM
Description: (§1) Compound of Example 25 falling in both Formula (I) and (Ia) was selected to be tested for off-target effects on a set of enzymes that include proteases (aspartic, cysteine, and serine), cyclooxygenases as well as lipoxygenases and group IV phospholipase (sPLA2) (Table 3). [table]

caspase-8 (h) = caspase-8 (h) (Homo sapiens (Human), UniProt Q14790); assay: Cerep enzyme inhibition screen: caspase-8; assay type: biochemical; conditions: mean of two determinations, read-out: Inhibitory activity (% Inh. at 10 μM), mean
Description: as §1

COX2 (h) = COX2 (h) (Homo sapiens (Human), UniProt P35354); assay: Cerep enzyme inhibition screen: COX2; assay type: biochemical; conditions: mean of two determinations, read-out: Inhibitory activity (% Inh. at 10 μM), mean
Description: as §1

Sequence of AC (Q9WV54 19-141): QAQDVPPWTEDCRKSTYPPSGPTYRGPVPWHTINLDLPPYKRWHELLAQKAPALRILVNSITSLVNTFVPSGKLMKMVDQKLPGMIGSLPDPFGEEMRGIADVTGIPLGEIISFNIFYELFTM
Sequence of AC (Q9WV54 142-394): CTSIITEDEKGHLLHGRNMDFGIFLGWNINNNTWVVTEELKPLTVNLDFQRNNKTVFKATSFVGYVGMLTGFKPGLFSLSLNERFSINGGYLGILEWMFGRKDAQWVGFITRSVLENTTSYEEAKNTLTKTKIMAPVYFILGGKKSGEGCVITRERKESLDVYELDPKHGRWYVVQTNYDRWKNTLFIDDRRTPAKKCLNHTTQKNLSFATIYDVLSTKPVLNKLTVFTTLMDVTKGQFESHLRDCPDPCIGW
Sequence of COX2 (h) (P35354 18-604): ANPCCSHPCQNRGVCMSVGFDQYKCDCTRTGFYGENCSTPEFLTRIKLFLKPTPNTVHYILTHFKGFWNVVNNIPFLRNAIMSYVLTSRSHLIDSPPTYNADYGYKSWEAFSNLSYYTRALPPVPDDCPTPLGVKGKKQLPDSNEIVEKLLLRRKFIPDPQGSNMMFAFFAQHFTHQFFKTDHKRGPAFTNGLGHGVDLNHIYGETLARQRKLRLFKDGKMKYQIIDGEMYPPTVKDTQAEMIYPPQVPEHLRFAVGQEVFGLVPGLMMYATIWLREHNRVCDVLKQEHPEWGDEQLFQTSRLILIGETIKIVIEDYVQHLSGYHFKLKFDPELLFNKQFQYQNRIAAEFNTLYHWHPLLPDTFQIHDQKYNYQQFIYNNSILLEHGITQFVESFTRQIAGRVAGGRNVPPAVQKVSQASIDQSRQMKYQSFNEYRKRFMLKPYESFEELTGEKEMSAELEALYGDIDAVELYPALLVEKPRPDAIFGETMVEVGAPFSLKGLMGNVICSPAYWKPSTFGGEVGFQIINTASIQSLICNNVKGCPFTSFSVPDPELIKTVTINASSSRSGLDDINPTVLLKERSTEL
Sequence of caspase-8 (h) (Q14790 217-374): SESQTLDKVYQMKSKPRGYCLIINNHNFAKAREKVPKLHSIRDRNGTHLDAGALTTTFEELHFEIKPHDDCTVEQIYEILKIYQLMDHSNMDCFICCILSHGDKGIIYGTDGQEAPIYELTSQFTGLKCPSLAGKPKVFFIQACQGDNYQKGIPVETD
Sequence of caspase-8 (h) (Q14790 385-479): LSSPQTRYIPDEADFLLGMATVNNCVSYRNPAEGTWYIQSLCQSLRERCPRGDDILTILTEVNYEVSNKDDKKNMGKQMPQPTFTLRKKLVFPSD
Description for SW403 cells: Combinatory index calculation of cell viability data analyzed with CompuSyn Software. The resulting combination index (CI) offers quantitative definition for additive effect (CI=1), synergism (CI<1), and antagonism (CI>1) in drug combinations. Results are expressed as mean±s.e.m. (n=8-16) of three independent experiments.
Finally, the CellTiter-Glo® Luminescent Cell Viability Assay can be used to determine the number of viable cells in culture based on quantitation of the ATP present, which signals the presence of metabolically active cells. Briefly, a volume of CellTiter-Glo® Reagent equal to the volume of cell culture medium present in each well is added to 96-well plates after drug treatment. Contents are mixed for 2 minutes on an orbital shaker to induce cell lysis and plate was incubated at room temperature for 10 minutes to stabilize signal before reading luminescence.
The compounds were added to the cultures once every 24 hours over a period of 72 hours and the effects of the combined treatments were evaluated using CompuSyn Software.

Compound	AC activity in lungs (AC; 10 mg-kg^−1 intraperitoneal, after 30 minutes or 3 hours)	duration of effects on ceramide levels (A375 cells; A375 cells (low AC expression))	di-hydro ceramide species levels (A375 cells; A375 cells)	ceramide species levels (cer(d18:1/14:0), cer(d18:1/16:0), cer(d18:1/18:0), cer(d18:1/24:1)) (A375 cells; A375 cells, LC/MS)	activity towards the off-target enzyme set [1]	AC activity in lungs (AC; 3 or 10 mg-kg^−1, intraperitoneal or oral (FIG. 7A oral))	AC activity in brain cortex (AC; 3 or 10 mg-kg^−1, intraperitoneal or oral (FIG. 7B intraperitoneal))	inhibition at 10 µM (caspase-8 (h))	inhibition at 10 µM (COX2 (h))	interaction with 5-FU on SW403 cell viability (combinatory index analysis) (SW403 cells)
O=C(NCCCCc1ccccc1)n1c(=O)oc2cc(Br)ccc21 [Example 7, 6-Bromo-2-oxo-N-(4-phenylbutyl)-1,3-benzoxazole-3-carboxamide]	time-dependent inhibition of AC activity in lungs	lasted up to 24 hours	significant increase in all di-hydro ceramide species analyzed	intracellular accumulation of various ceramide species	–	–	–	–	–	–
O=C(NCCCCc1ccccc1)n1c(=O)oc2cc(-c3ccc(F)cc3)ccc21 [Example 25, 6-(4-Fluorophenyl)-2-oxo-N-(4-phenylbutyl)-1,3-benzoxazole-3-carboxamide]	–	–	–	–	has not any significant activity	time and dose-dependent inhibition of AC activity	time and dose-dependent inhibition of AC activity	-0.9%	6.7%	acted synergistically with 5-FU
